Data on 25 compounds can be found in patent US9758527B2, “Cyclohexene derivative, preparation method therefor, and pharmaceutical composition for preventing or treating metabolic diseases, containing same as active ingredient” (HYUNDAI PHARM CO., LTD., priority 2014, dated 2017).

Where a name gives a salt, the structure may show the parent alone. Read-outs that look alike come from different tables or passages of the source.

The target in the assay is T1, G protein-coupled receptor 119 (GPR-119) (Mesocricetus auratus, UniProt A0A1U8CD06).
T1 construct: hamster-derived β-cells containing G protein-coupled receptor 119 (GPR-119), HIT-T15 cells; host or cells: HIT-T15 (hamster pancreatic β-cells)
T1 sequence (A0A1U8CD06 1-334): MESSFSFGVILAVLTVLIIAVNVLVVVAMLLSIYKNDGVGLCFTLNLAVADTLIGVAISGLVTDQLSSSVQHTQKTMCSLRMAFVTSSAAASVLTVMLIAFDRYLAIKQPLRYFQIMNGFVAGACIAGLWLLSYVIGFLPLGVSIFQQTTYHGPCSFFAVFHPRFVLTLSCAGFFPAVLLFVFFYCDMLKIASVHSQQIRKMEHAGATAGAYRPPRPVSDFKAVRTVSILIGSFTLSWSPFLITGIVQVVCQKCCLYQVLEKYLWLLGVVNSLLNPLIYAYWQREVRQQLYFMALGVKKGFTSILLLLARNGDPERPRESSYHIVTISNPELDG
The assay is described as follows: Evaluation of cAMP activity in HIT-T15 cells (HTRF cAMP dynamic kit). In kind it is cell-based, hamster. As to conditions: cAMP activation. The method in brief: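 HIT-T15 cells, 60,000/well, treated next day with compound at six concentrations ([…]) for 1 h at 37° C. Lysate cAMP quantified by HTRF competitive immunoassay (D2-cAMP, cryptate anti-cAMP); activity taken as change in FRET signal relative to DMSO.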
Background: TR-FRET usually uses a lanthanide donor and a delayed reading to cut background.

[1] abbreviates: 1 h at 37° C., six concentrations, read-out: EC50.

`CC(C)c1noc(N2CCC(COc3ccc(C4=CCC(C(=O)N5CCC5)CC4)cc3)CC2)n1` (centres unmarked) [Example 65, azetidin-1-yl(4-(4-((1-(3-isopropyl-1,2,4-oxadiazol-5-yl)piperidin-4-yl)methoxy)phenyl)cyclohex-3-enyl)methanone]: the half-maximal effective concentration (EC50) reads like this: under setting [1], 41 nM; (read-out: EC50 value) no more than 50 nM. Take `CC(C)(C)OC(=O)N1CCC(COc2ccc(C3=CCC(C(=O)N4CCC[C@H]4C#N)CC3)cc2F)CC1` (stereo partly drawn) [Example 114, tert-butyl 4-((4-(4-((S)-2-cyanopyrrolidine-1-carbonyl)cyclohex-1-enyl)-2-fluorophenoxy)methyl)piperidine-1-carboxylate]: the half-maximal effective concentration (EC50) was 14 nM under setting [1] and no more than 50 nM (read-out: EC50 value). With `CC(C)c1noc(N2CCC(COc3ccc(C4=CCC(C(=O)N[C@H](C)CO)CC4)cc3F)CC2)n1` (stereo partly drawn) [Example 84, 4-(3-fluoro-4-((1-(3-isopropyl-1,2,4-oxadiazol-5-yl)piperidin-4-yl)methoxy)phenyl)-N-((R)-1-hydroxypropan-2-yl)cyclohex-3-enecarboxamide], the EC50 was 30 nM under setting [1] and no more than 50 nM (read-out: EC50 value).

As to `CCc1cnc(N2CCC(COc3ccc(C4=CCC(C(=O)N5CCN(CC)CC5)CC4)cc3)CC2)nc1` (centres unmarked) [Example 55, (4-ethylpiperazin-1-yl)(4-(4-((1-(5-ethylpyrimidin-2-yl)piperidin-4-yl)methoxy)phenyl)cyclohex-3-enyl)methanone], under setting [1], the EC50 came out at 100 nM. `CC(C)c1noc(N2CCC(COc3ccc(C4=CCC(C(=O)N5CCC(=O)CC5)CC4)cc3)CC2)n1` (centres unmarked) [Example 275, 1-(4-(4-((1-(3-isopropyl-1,2,4-oxadiazol-5-yl)piperidin-4-yl)methoxy)phenyl)cyclohex-3-enecarbonyl)piperidin-4-one]: the EC50 reads like this: (EC50 (nM), 1 h at 37° C., six concentrations) 28 nM; (EC50 value) no more than 50 nM. Turning to `CC(C)(C)OC(=O)N1CCC(COc2ccc(C3=CCC(C(=O)N4CC[C@H](F)C4)CC3)cn2)CC1` (stereo partly drawn) [Example 91, tert-butyl 4-((5-(4-((S)-3-fluoropyrrolidine-1-carbonyl)cyclohex-1-enyl)pyridin-2-yloxy)methyl)piperidine-1-carboxylate], the EC50 by setting is: under setting [1], 28 nM; (read-out: EC50 value) no more than 50 nM. With `CC(C)(C)OC(=O)N1CCC(COc2ccc(C3=CCC(C(=O)NCC(F)F)CC3)cn2)CC1` (centres unmarked) [Example 87, tert-butyl 4-((5-(4-(2,2-difluoroethylcarbamoyl)cyclohex-1-enyl)pyridin-2-yloxy)methyl)piperidine-1-carboxylate], under setting [1], the EC50 turned out to be 70 nM.

For the compound `CC(C)c1noc(N2CCC(COc3ccc(C4=CCC(C(=O)N5CC[C@H](F)C5)CC4)cc3)CC2)n1` (stereo partly drawn) [Example 53, ((S)-3-fluoropyrrolidin-1-yl)(4-(4-((1-(3-isopropyl-1,2,4-oxadiazol-5-yl)piperidin-4-yl)methoxy)phenyl)cyclohex-3-enyl)methanone], the EC50 is, setting by setting: under setting [1], 21 nM; (read-out: EC50 value) no more than 50 nM. Turning to `CC(C)c1noc(N2CCC(COc3ccc(C4=CCC(C(=O)N5CCC(CO)CC5)CC4)cc3)CC2)n1` (centres unmarked) [Example 183, (4-(hydroxymethyl)piperidin-1-yl)(4-(4-((1-(3-isopropyl-1,2,4-oxadiazol-5-yl)piperidin-4-yl)methoxy)phenyl)cyclohex-3-enyl)methanone], the EC50 under setting [1] came out at 12 nM and the EC50 (read-out: EC50 value) was no more than 50 nM. With `CC(C)c1noc(N2CCC(COc3ccc(C4=CCC(C(=O)N5CCC(CCO)CC5)CC4)cc3)CC2)n1` (centres unmarked) [Example 186, (4-(2-hydroxyethyl)piperidin-1-yl)(4-(4-((1-(3-isopropyl-1,2,4-oxadiazol-5-yl)piperidin-4-yl)methoxy)phenyl)cyclohex-3-enyl)methanone], the EC50 (read-out: EC50 value) was no more than 50 nM. As for `CC(C)c1noc(N2CCC(COc3ccc(C4=CCC(C(=O)NCC(F)F)CC4)cc3F)CC2)n1` (centres unmarked) [Example 93, N-(2,2-difluoroethyl)-4-(3-fluoro-4-((1-(3-isopropyl-1,2,4-oxadiazol-5-yl)piperidin-4-yl)methoxy)phenyl)cyclohex-3-enecarboxamide], the EC50 is 50 nM under setting [1] and no more than 50 nM (read-out: EC50 value). On the same counts, the results for `CC(C)c1noc(N2CCC(COc3ccc(C4=CCC(C(=O)N5CC[C@H](O)C5)CC4)cc3)CC2)n1` (stereo partly drawn) [Example 49, ((S)-3-hydroxypyrrolidin-1-yl)(4-(4-((1-(3-isopropyl-1,2,4-oxadiazol-5-yl)piperidin-4-yl)methoxy)phenyl)cyclohex-3-enyl)methanone] are 26 nM and no more than 50 nM.

For the compound `CCc1cnc(N2CCC(COc3ccc(C4=CCC(C(=O)NCCF)CC4)cc3)CC2)nc1` (centres unmarked) [Example 104, 4-(4-((1-(5-ethylpyrimidin-2-yl)piperidin-4-yl)methoxy)phenyl)-N-(2-fluoroethyl)cyclohex-3-enecarboxamide], the EC50 under setting [1] worked out at 70 nM.

In the case of `CC(C)c1noc(N2CCC(COc3ccc(C4=CCC(C(=O)N5CCCCC5)CC4)cc3)CC2)n1` (centres unmarked) [Example 56, (4-(4-((1-(3-isopropyl-1,2,4-oxadiazol-5-yl)piperidin-4-yl)methoxy)phenyl)cyclohex-3-enyl)(piperidin-1-yl)methanone], the EC50 was 30 nM under setting [1] and no more than 50 nM (read-out: EC50 value). In the case of `CC(C)(C)OC(=O)N1CCC(COc2ccc(C3=CCC(C(=O)N4CCC(CO)CC4)CC3)cc2)CC1` (centres unmarked) [Example 226, tert-butyl 4-((4-(4-(4-(hydroxymethyl)piperidine-1-carbonyl)cyclohex-1-enyl)phenoxy)methyl)piperidine-1-carboxylate], the EC50 under setting [1] was determined as 14 nM and the 50% effective concentration (EC50) (read-out: EC50 value) was no more than 50 nM. In the case of `CC(C)(C)OC(=O)N1CCC(COc2ccc(C3=CCC(C(=O)N4CC[C@H](O)C4)CC3)cc2F)CC1` (stereo partly drawn) [Example 44, tert-butyl 4-((2-fluoro-4-(4-((S)-3-hydroxypyrrolidine-1-carbonyl)cyclohex-1-enyl)phenoxy)methyl)piperidine-1-carboxylate], the EC50 reads like this: under setting [1], 13 nM; (read-out: EC50 value) no more than 50 nM. As to `CC(C)c1noc(N2CCC(COc3ccc(C4=CCC(C(=O)N5CCSCC5)CC4)cc3F)CC2)n1` (centres unmarked) [Example 98, (4-(3-fluoro-4-((1-(3-isopropyl-1,2,4-oxadiazol-5-yl)piperidin-4-yl)methoxy)phenyl)cyclohex-3-enyl)(thiomorpholino)methanone], the EC50 was 6.1 nM under setting [1] and no more than 50 nM (read-out: EC50 value). Take `CC(C)(C)OC(=O)N1CCC(COc2ccc(C3=CCC(C(=O)NCCF)CC3)cn2)CC1` (centres unmarked) [Example 88, tert-butyl 4-((5-(4-(2-fluoroethylcarbamoyl)cyclohex-1-enyl)pyridin-2-yloxy)methyl)piperidine-1-carboxylate]: the EC50 under setting [1] came to 130 nM. Same read-out and setting: the result for `CCc1cnc(N2CCC(COc3ccc(C4=CCC(C(=O)N5CCN(CCO)CC5)CC4)cc3)CC2)nc1` (centres unmarked) [Example 172, (4-(4-((1-(5-ethylpyrimidin-2-yl)piperidin-4-yl)methoxy)phenyl)cyclohex-3-enyl)(4-(2-hydroxyethyl)piperazin-1-yl)methanone] reads 38 nM. For `CCc1cnc(N2CCC(COc3ccc(C4=CCC(C(=O)N5CCCCC5)CC4)cc3)CC2)nc1` (centres unmarked) [Example 167, (4-(4-((1-(5-ethylpyrimidin-2-yl)piperidin-4-yl)methoxy)phenyl)cyclohex-3-enyl)(piperidin-1-yl)methanone hydrochloride], under setting [1], the EC50 is 14 nM. Take `CCc1cnc(N2CCC(COc3ccc(C4=CCC(C(=O)N5CCCC5)CC4)cc3)CC2)nc1` (centres unmarked) [Example 162, (4-(4-((1-(5-ethylpyrimidin-2-yl)piperidin-4-yl)methoxy)phenyl)cyclohex-3-enyl)(pyrrolidin-1-yl)methanone]: the EC50 under setting [1] came to 27 nM and the EC50 (read-out: EC50 value) is no more than 50 nM.

For `C[C@H](O)CNC(=O)C1CC=C(c2ccc(OCC3CCN(C(=O)OC(C)(C)C)CC3)nc2)CC1` (stereo partly drawn) [Example 26, tert-butyl 4-((5-(4-((S)-2-hydroxypropylcarbamoyl)cyclohex-1-enyl)pyridin-2-yloxy)methyl)piperidine-1-carboxylate], the EC50 under setting [1] turned out to be 250 nM. As to `CC(C)c1noc(N2CCC(COc3ccc(C4=CCC(C(=O)N5CCc6ccccc6C5C)CC4)cc3)CC2)n1` (centres unmarked) [Example 213, (4-(4-((1-(3-isopropyl-1,2,4-oxadiazol-5-yl)piperidin-4-yl)methoxy)phenyl)cyclohex-3-enyl)(1-methyl-3,4-dihydroisoquinolin-2(1H)-yl)methanone], the EC50 was 24 nM under setting [1] and no more than 50 nM (read-out: EC50 value).

Consider `CC(C)c1noc(N2CCC(COc3ccc(C4=CCC(C(=O)N(C)CCO)CC4)cc3F)CC2)n1` (centres unmarked) [Example 81, 4-(3-fluoro-4-((1-(3-isopropyl-1,2,4-oxadiazol-5-yl)piperidin-4-yl)methoxy)phenyl)-N-(2-hydroxyethyl)-N-methylcyclohex-3-enecarboxamide], for which the EC50 is, setting by setting: under setting [1], 9 nM; (read-out: EC50 value) no more than 50 nM. For the compound `CC(C)c1noc(N2CCC(COc3ccc(C4=CCC(C(=O)N5CC[C@H](F)C5)CC4)cc3F)CC2)n1` (stereo partly drawn) [Example 95, (4-(3-fluoro-4-((1-(3-isopropyl-1,2,4-oxadiazol-5-yl)piperidin-4-yl)methoxy)phenyl)cyclohex-3-enyl)((S)-3-fluoropyrrolidin-1-yl)methanone], the EC50 under setting [1] was 16 nM.

Broadly, the EC50 is the concentration giving half of the maximal effect.
